Data from patent US6994992B1, “Androgen-induced suppressor of cell proliferation and uses thereof” (Trustees of Tufts College, priority 1999, dated 2006).

Tests used:
STFX1 cells = test: BrdU incorporation, percent BrdU-labeled nuclei of STFX1 cells containing vector only or AS3 antisense constructs; type: cell-based; details: for percent BrdU-labeled nuclei: 10 nM R1881 for 24 h, BrdU labeling
Description: In particular, the AS3 antisense gene was cloned into the Clontech pRevTRE™ retroviral vector under the control of a tetracycline sensitive promoter. The promoter has seven repeats of the bacterial tetO operator sequence upstream of the minimal CMV promoter which can be bound by the tetracycline transactivator (tTA). The tTA is a fusion protein between the bacterial tetracycline repressor and the […] herpes virus transactivator. The tetracycline transactivator is sensitive for tetracycline such that, in the presence of tetracycline, the transactivator cannot bind the tetracycline promoter so the transgene is “off” and conversely, in the absence of tetracycline, the gene is “on” (i.e., the Tet-Off™ system; see, e.g., Clontech pRevTRE™ manual for further details).
The supernatants containing the highest amounts of virions were then used to infect the STFX1 cell line, a derivative of the MCF7-AR1 that has a tetracycline transactivator gene stably integrated. During the cloning and selection procedures, cells were maintained in 1 μg/mL of tetracycline to suppress the expression of the inducible transgenes.
In order to characterize the cell lines expressing AS3 antisense and the “control” cell lines having vector without insert, cells were incubated in the presence (i.e., the transgene is off) and absence of tetracycline (i.e., the transgene is on) and, after 36 hours, assayed for transcript expression using RT-PCR under standard conditions,
To determine the affect of androgen induced AS3 suppression of cellular growth, cells lines showing high levels of inducible AS3 antisense expression were chosen for further study. Cells were seeded onto coverslips in standard growth medium and allowed to grow for 5 days in the presence of 10 μg/ml tetracycline (hereafter “tet”). Then, vehicle or 10 nM of the androgen R1881 was added. Finally, 24 hours later, the cells were treated with 10 μg/ml of bromodeoxyuridine (BrdU) for several hours to measure the percent of cells actively proliferating as a function of BrdU incorporation during DNA replication. The cells were then fixed, Hoechst stained, and the percent number of BrdU-labeled cells was determined using immunocytochemistry (using standard BrdU labeling regents and protocols from Boheringer).

LNCaP-FGC cells = test: Proliferation of LNCaP-FGC cells in CDHuS with androgen; type: cell-based, human
Description: Androgens regulate prostate cell numbers and cell proliferation by three major mechanisms: a) inhibition of cell death (apoptosis), b) induction of cell proliferation (Step-1), and c) inhibition of cell proliferation (proliferative shutoff, Step-2) (Isaacs (1985) Prostate 5:545–557; Bruchovsky et al. (1975) Vit. &Horm. 33:61–102; Sonnenschein et al., (1989) Cancer Res. 49:3474–3481). Androgens affect epithelial and stromal cell types which, in turn, interact in the prostate (Hayward et al., (1997) Brit. J. Urol. Suppl. 2: 18–26). […] Proliferation is inhibited in these cells by sex steroid-stripped (charcoal-dextran treated) human serum (CDHuS) (Sonnenschein et al., (1989) Cancer Res. 49:3474–3481). Low androgen concentrations cancel this inhibition (Step-1) and at higher levels, androgens induce an irreversible proliferative shutoff (Step-2) (Sonnenschein et al., (1989) Cancer Res. 49:3474–3481; Soto et al., (1995) Oncology Res. 7: 545–558). During the shutoff period, these cells remain in the G0/G1 phase of the cell cycle. Prostate specific antigen (PSA) induction, however, is still dependent on androgens in these postmitotic cells (Soto et al., (1995) Oncology Res. 7: 545–558). […]

AS3 = test: Expression analysis of the AS3 transcript in LNCaP-FGC cells; type: cell-based, human
Procedure: Briefly, androgen-specific, low-abundance regulatory mRNA sequences expressed during the proliferative shutoff, were selected using the Wang-Brown approach (Wang et al., (1991) Proc. Natl. Acad. Sci. USA 88: 11505–11509). […] LNCaP-FGC cells were treated with 30 nM R1881 to generate proliferative shutoff. R1881 (methyltrienolone) is a synthetic, non-metabolized androgen (Roussell-UCLAF, Romainville, France). Exposure to androgen for 24 hours was required to commit LNCaP-FGC cells to an irreversible proliferative shutoff (Geck et al., (1997) J. Steroid Biochem. Mol. Biol. 63: 211–218). […] LNCaP-FGC cells reversibly arrested by CDHuS were considered as the shutoff-negative control; they were harvested after three days of CDHuS treatment. Total RNA was prepared by the acidic guanidinium-thiocyanate method and polyA RNA was purified by using the FastTrack™ kit (Invitrogen, San Diego, Calif.) (Chomczinsky et al., (1987) Anal. Biochem. 162: 156–159).
Furthermore, expression of the AS3 transcript positively correlated with proliferation arrest as this gene was expressed only in shutoff-positive cell lines and variants. […] An additional observation that indicates the AS3 gene codes for an inhibitor of the proliferation of prostate cells is the increase of AS3 mRNA levels in the rat prostate when proliferation was arrested by prolonged androgen administration. […]

[1] = CDHuS supplemented with 30 pM R1881

## C[C@]1(O)CC[C@H]2[C@@H]3CCC4=CC(=O)CCC4=C3C=C[C@@]21C [R1881, methyltrienolone]
STFX1 cells; AS3 levels reduced by antisense expression in the absence of tetracycline (sample 8 vs sample 6), 10 nM R1881
  proliferative shutoff: no longer induces a proliferative shutoff
STFX1 cells; STFX1 cells with AS3 antisense construct, +tet (antisense uninduced)
  percent BrdU-labeled nuclei: 9.7 +/−0.6%
STFX1 cells; STFX1 cells with AS3 antisense construct, −tet (antisense expressed)
  percent BrdU-labeled nuclei: 29.1 +/−1.6%
STFX1 cells; STFX1 cells with empty vector, +tet (10 μg/ml)
  percent BrdU-labeled nuclei: 9.4 +/−1.7%
STFX1 cells; STFX1 cells with empty vector, −tet (vector induced)
  percent BrdU-labeled nuclei: 10.7 +/−0.9%
STFX1 cells; cellular levels of AS3 unaffected (samples 2, 4, 6) compared to sample 1 without androgen, 10 nM R1881
  number of proliferating cells in S phase: significant decrease
LNCaP-FGC cells; 0.3–30 nM of R1881
  proliferation of LNCaP-FGC cells: inhibited from proliferating
LNCaP-FGC cells; [1]
  proliferation of LNCaP-FGC cells: proliferated maximally
AS3; 0.3–30 nM of R1881
  AS3 expression: strongly induced
AS3; [1]
  AS3 expression: not expressed
